PMC5483439, “The Effect of Pungent and Tingling Compounds from Piper nigrum L. on Background K^+ Currents” (Frontiers in Pharmacology, 2017)
Read-outs that look alike come from different tables or passages of the source.

Experiments:
hKCNK9 = molecular target: T1, hKCNK9 (Homo sapiens, UniProt Q9NPC2); assay: Two-electrode voltage clamp on Xenopus laevis oocytes expressing hKCNK9; assay type: cell-based; details: for effect on basal activity of hKCNK9: 1 mM
T1 construct: host or cells: Xenopus laevis oocytes injected with cRNA (plasmid pCR4-TOPO)
Text: (§1) Human KCNK3 (TASK-1, K2P3.1) cloned into the expression vector pIRES-CD8 was a gift from Dr. Fabrice Duprat (Institut National de la Santé et de la Recherche Médicale, Antipolis, France). Human KCNK18 (hTRESK, K2P18.1), cloned into the plasmid pEXO, was a gift from Dr. P. Enyedi (Semmelweis University, Budapest, Hungary). These plasmids were linearized with the restriction enzymes BamHI and XbaI, respectively, and then used as templates for in vitro transcription. Human KCNK9 (hTASK-3, K2P9.1) cloned into the expression vector pCR4-TOPO, was purchased from Imagenes (Berlin, Germany). The plasmid was linearized with the restriction enzyme SspI, to generate a linear cDNA template for in vitro transcription. mKCNK3 was isolated from mouse heart by standard procedures and inserted into pSGEM. mKCNK9 and mKCNK18 were kindly provided by Dr. D. Bayliss (University of Virginia, Charlottesville, VA, United States) and Prof. Dr. P. Enyedi (Semmelweis University, Budapest, Hungary). Both channels were subcloned into pSGEM. The pSGEM plasmids were subsequently linearized with the restriction enzyme PacI. The capped RNAs were synthesized in the presence of the capping analog m7G(5′)ppp(5′)G using the AmpliCap-T7 Message Maker kit (Epicentre, Madison, WI, United States). The cRNA was dissolved in nuclease-free water to obtain a final concentration of 100 ng/μL.
The expression in Xenopus laevis oocytes was essentially performed as previously described ([Beltrán et al., 2013]). Briefly, mature female Xenopus laevis frogs were anesthetized with 0.15% MS-222, and surgery was performed according to standard methods, where the extracted ovarian lobes were placed into Ca^2+-free Barth solution containing collagenase type II (Worthington Biochemical Corporation, Lakewood, NJ, United States) and kept for 90 min on a shaker at 40 rpm (room temperature). Healthy stage V and VI oocytes were selected for injection with cRNA coding for the proteins of interest. Thirty nanoliters of cRNA (100 ng/μL) of each channel were injected using a Microinjector Micro 4 ^TM (World Precision Instruments). After injection, the oocytes were kept in ND96 (96 mM NaCl; 2 mM KCl; 1.8 mM CaCl2; 1 mM MgCl2; 2.5 mM Sodium pyruvate; 10 mM, HEPES [4-(2-hydroxyethyl)-1-piperazineethanesulfonic acid), pH 7.4]. The measurements were performed 24 to 72 h after injection. The oocytes were placed in a 100 μL chamber that was perfused with frog Ringer’s solution (115 mM NaCl; 2.5 mM KCl; 1.8 mM CaCl2, and 10 mM HEPES, pH 7.2). The substances were dissolved in this solution before being manually applied to the oocytes using an automatic pipette (Research pro, Eppendorf, Germany). The application time was usually three ramps (approximately 10 s). […]

hKCNK3 = molecular target: T2, hKCNK3 (Homo sapiens, UniProt O14649); assay: Two-electrode voltage clamp on Xenopus laevis oocytes expressing hKCNK3; assay type: cell-based; details: for effect on basal activity of hKCNK3: 1 mM; for % of basal activity after saturating concentrations: hKCNK3 in Xenopus oocytes
T2 construct: expressed in transfected cells; host or cells: Xenopus laevis oocytes injected with cRNA (plasmid pIRES-CD8, gift of Dr. Fabrice Duprat)
Text: as §1
The expression in Xenopus laevis oocytes was essentially performed as previously described ([Beltrán et al., 2013]). Briefly, mature female Xenopus laevis frogs were anesthetized with 0.15% MS-222, and surgery was performed according to standard methods, where the extracted ovarian lobes were placed into Ca^2+-free Barth solution containing collagenase type II (Worthington Biochemical Corporation, Lakewood, NJ, United States) and kept for 90 min on a shaker at 40 rpm (room temperature). Healthy stage V and VI oocytes were selected for injection with cRNA coding for the proteins of interest. Thirty nanoliters of cRNA (100 ng/μL) of each channel were injected using a Microinjector Micro 4 ^TM (World Precision Instruments). After injection, the oocytes were kept in ND96 (96 mM NaCl; 2 mM KCl; 1.8 mM CaCl2; 1 mM MgCl2; 2.5 mM Sodium pyruvate; 10 mM, HEPES [4-(2-hydroxyethyl)-1-piperazineethanesulfonic acid), pH 7.4]. The measurements were performed 24 to 72 h after injection. The oocytes were placed in a 100 μL chamber that was perfused with frog Ringer’s solution (115 mM NaCl; 2.5 mM KCl; 1.8 mM CaCl2, and 10 mM HEPES, pH 7.2). The substances were dissolved in this solution before being manually applied to the oocytes using an automatic pipette (Research pro, Eppendorf, Germany). The application time was usually three ramps (approximately 10 s). For recording, a Turbo Tec-03x (npi electronic GmbH, Tamm, Germany) amplifier was used, with an acquisition rate of 1000 Hz and a low pass filter of 20 Hz. Borosilicate glass capillaries were pulled with a Kopf vertical pipette puller. The pulled glass capillaries were filled with 3 M KCl.
A ramp series protocol was used to evaluate the activity of KCNK channels as previously described ([Beltrán et al., 2013]). Briefly, voltage ramps from –100 mV to + 50 mV ([…]) followed by a constant of +50 mV (150 ms) were applied at a time interval of 2 s. […] This value was then normalized to the average obtained from three ramps prior to the application. In most cases, the currents elicited by this voltage-clamp ramp series protocol were more than ten times larger than the background currents observed in uninjected oocytes, while also presenting the described outward rectification under physiological concentrations of intracellular and extracellular K^+ ([Goldstein et al., 2001]; [Enyedi and Czirják, 2010]). Due to these characteristics, no leakage subtraction was considered necessary. Oocytes not fulfilling these characteristics were not considered for data analysis. […]

tongue surface = tested on: tongue surface; set-up: method as in Dawid et al., 2012; details: human, ref Dawid et al., 2012, cited from earlier work; for pungent threshold concentration / tingling threshold concentration: filter paper on tongue
hKCNK18 = molecular target: T3, hKCNK18 (Homo sapiens, UniProt Q7Z418); assay: Two-electrode voltage clamp on Xenopus laevis oocytes expressing hKCNK18; assay type: cell-based; details: for effect on basal activity of hKCNK18: 1 mM
T3 construct: expressed in transfected cells; host or cells: Xenopus laevis oocytes injected with cRNA (plasmid pEXO, gift of Dr. P. Enyedi)
T3 sequence (Q7Z418 1-384): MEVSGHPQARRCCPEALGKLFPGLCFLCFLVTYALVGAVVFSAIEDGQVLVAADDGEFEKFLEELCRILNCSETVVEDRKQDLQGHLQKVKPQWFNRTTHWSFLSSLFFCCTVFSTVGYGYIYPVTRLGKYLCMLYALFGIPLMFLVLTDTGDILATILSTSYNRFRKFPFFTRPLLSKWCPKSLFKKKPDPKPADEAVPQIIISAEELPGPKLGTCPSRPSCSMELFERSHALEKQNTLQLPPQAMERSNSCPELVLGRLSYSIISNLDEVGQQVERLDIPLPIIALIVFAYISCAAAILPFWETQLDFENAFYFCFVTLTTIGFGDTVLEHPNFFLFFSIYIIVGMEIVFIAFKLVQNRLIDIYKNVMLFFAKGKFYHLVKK
Text: as §1
The expression in Xenopus laevis oocytes was essentially performed as previously described ([Beltrán et al., 2013]). Briefly, mature female Xenopus laevis frogs were anesthetized with 0.15% MS-222, and surgery was performed according to standard methods, where the extracted ovarian lobes were placed into Ca^2+-free Barth solution containing collagenase type II (Worthington Biochemical Corporation, Lakewood, NJ, United States) and kept for 90 min on a shaker at 40 rpm (room temperature). Healthy stage V and VI oocytes were selected for injection with cRNA coding for the proteins of interest. Thirty nanoliters of cRNA (100 ng/μL) of each channel were injected using a Microinjector Micro 4 ^TM (World Precision Instruments). […]

[1] = tested on: background current of mouse trigeminal neurons; assay: Whole-cell patch clamp on cultured mouse trigeminal neurons; assay type: cell-based; details: 100 μM XE-991, Na+/Ca2+-free solution
Method: Trigeminal ganglia neurons were isolated from Swiss CD-1 mice (Charles River Laboratories, Sulzfeld, Germany). All experiments involving animals were carried out in accordance with the European Union Community Council’s guidelines and approved by the competent state office of the Federal Land of Northrhine Westphalia (file number 87-51.04.2010.A180). At postnatal day 2–5, the mice were sacrificed by decapitation. The brain was removed, and both trigeminal ganglia were excised. The ganglia were washed in PBS+/+ (Invitrogen, Karlsruhe, Germany) and collected in Leibovitz Medium (L15, Invitrogen) on ice. The ganglia were transferred to Dulbecco’s modified essential medium (DMEM) containing 0.025% collagenase (type IA, Sigma–Aldrich). The minced ganglia were incubated for 45 min in a humidified atmosphere (37°C, 95% humidity, 6% CO2) before trituration. The cell suspension was centrifuged at 1000 rpm for 4 min at room temperature and the pellet was resuspended in F-12 medium (Invitrogen; 31331-D-MEM/F-12, GlutaMax^TM) supplemented with 10% fetal bovine serum (FBS^TM; Invitrogen), 200 U/mL penicillin and 200 U/mL streptomycin. The cell suspension (50 μL) was then plated on poly L-lysine (0.01%) coated glass coverslips (30 mm, Sarstedt, Nümbrecht, Germany), placed in cell culture dishes (35 mm) and kept in a humidified atmosphere (37°C, 95% humidity, 6% CO2) for 1 h. Subsequently, F-12 medium (2 mL) supplemented with FBS (10%), 200 U/mL penicillin and 200 U/mL streptomycin was added to each dish. The cells were kept in an incubator (37°C, 95% humidity, 6% CO2) until use.
The recordings were performed using the whole-cell configuration of the patch-clamp technique. The cells were maintained in an extracellular recording solution containing 140 mM NaCl, 5 mM KCl, 2 mM MgCl2, 2 mM CaCl2, 10 mM HEPES and 10 mM glucose, pH 7.4. The Ca^2+ and Na^+- free extracellular solution contained: 140 mM NMDG-Cl, 5 mM KCl, 2 mM MgCl2, 5 mM EGTA, 10 mM HEPES, pH 7.4. The patch electrodes were pulled from borosilicate glass (1.2 mm OD × 1.17 mm ID; Harvard apparatus, Edenbridge, Kent, United Kingdom) and fire polished to 2.5–4 MΩ tip resistance using a horizontal pipette puller (Zeitz Instruments, Munich, Germany) to obtain a patch of approximately 1–2 μm diameter. The pipette solution contained 140 mM KCl, 1 mM MgCl2, and 10 mM HEPES, pH 7.4. All recordings were performed at room temperature with an EPC7 amplifier (List-Medical Electronic, Darmstadt, Germany). The capacity and serial resistance were adjusted manually. The substances were applied via a custom-made manifold superfusion device. […] The data were acquired using Pulse software (HEKA, Lambrecht, Germany) and analyzed with PulseFit (HEKA, Lambrecht, Germany). Unless otherwise stated, the data are expressed as the mean ± SEM. […]

[2] = Xenopus oocytes, current at +50 mV normalized to pre-application, read-out: IC50 on hKCNK3

T2 sequence (O14649 whole entry): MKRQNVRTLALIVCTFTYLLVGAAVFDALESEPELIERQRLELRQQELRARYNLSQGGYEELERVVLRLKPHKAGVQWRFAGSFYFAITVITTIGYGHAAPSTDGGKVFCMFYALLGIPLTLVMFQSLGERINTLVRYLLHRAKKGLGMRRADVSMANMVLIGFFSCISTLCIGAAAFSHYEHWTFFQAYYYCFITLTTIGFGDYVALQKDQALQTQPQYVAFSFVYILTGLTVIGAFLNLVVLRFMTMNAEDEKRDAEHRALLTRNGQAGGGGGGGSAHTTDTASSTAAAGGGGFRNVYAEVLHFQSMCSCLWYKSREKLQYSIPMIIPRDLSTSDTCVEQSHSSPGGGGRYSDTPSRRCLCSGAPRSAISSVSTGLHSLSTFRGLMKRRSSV
T1 sequence (Q9NPC2 whole entry): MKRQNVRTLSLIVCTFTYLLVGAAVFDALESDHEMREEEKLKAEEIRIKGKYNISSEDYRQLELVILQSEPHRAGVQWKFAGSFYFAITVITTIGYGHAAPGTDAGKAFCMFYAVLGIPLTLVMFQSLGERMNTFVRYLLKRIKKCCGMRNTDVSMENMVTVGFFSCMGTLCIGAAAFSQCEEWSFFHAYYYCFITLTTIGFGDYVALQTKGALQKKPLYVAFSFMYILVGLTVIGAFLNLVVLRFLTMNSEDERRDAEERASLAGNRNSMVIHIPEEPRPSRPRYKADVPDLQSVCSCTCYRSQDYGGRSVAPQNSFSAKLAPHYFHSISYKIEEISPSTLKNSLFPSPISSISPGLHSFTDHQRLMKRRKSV

| Molecule | effect on basal activity of hKCNK3 (hKCNK3; Xenopus oocytes) | IC50 (hKCNK3; [2]) | % of basal activity after saturating concentrations (hKCNK3) | pungent threshold concentration (tongue surface) | also measured |
| --- | --- | --- | --- | --- | --- |
| 1-(octadeca-2E,4E,13/12Z-trienoyl)-pyrrolidine [5b/6b] | most pronounced effect | 19 ± 2.1 µM | 27 ± 3% | – | effect on basal activity of hKCNK9 (hKCNK9): inhibited; IC50 (hKCNK9; N = 3–6): 236 ± 56 µM |
| O=C(/C=C/C=C/c1ccc2c(c1)OCO2)N1CCCC1 [1b, piperyline] | decrease in their basal activity | 180 ± 39 µM | 55 ± 5% | 5.1 nmol/cm^2 | threshold for oral pungency (tongue surface): 0.005 μmol/cm^2; effect on basal activity of hKCNK9 (hKCNK9): decrease in their basal activity; effect on basal activity of hKCNK18 (hKCNK18): decrease in their basal activity; IC50 (hKCNK18; N = 3–6): 252 ± 55 µM |
| CC(C)CNC(=O)/C=C/C=C/c1ccc2c(c1)OCO2 [1c, piperlonguminine] | decrease in their basal activity | 113 ± 79.5 µM | 50 ± 14% | 10.4 nmol/cm^2 | threshold for oral pungency (tongue surface): 0.01 μmol/cm^2; effect on basal activity of hKCNK9 (hKCNK9): decrease in their basal activity; effect on basal activity of hKCNK18 (hKCNK18): decrease in their basal activity |
| O=C(/C=C/C=C/C=C/c1ccc2c(c1)OCO2)N1CCCCC1 [2a, piperettine] | – | – | – | 5.2 nmol/cm^2 | – |
| O=C(/C=C/C=C/CC/C=C/c1ccc2c(c1)OCO2)N1CCCCC1 [3a, dehydropipernonaline] | – | 44 ± 6.7 µM | 39 ± 1% | 152.1 nmol/cm^2 | – |
| O=C(/C=C/C=C/CC/C=C/c1ccc2c(c1)OCO2)N1CCCC1 [3b, 1-[1-oxo-9(3,4-methylenedioxyphenyl)-2E,4E,8E-nonatrienyl]-pyrrolidine] | most pronounced effect | 49.6 ± 8.5 µM | 35 ± 3% | – | – |
| O=C(/C=C/C=C/CCCCCC/C=C/c1ccc2c(c1)OCO2)N1CCCC1 [4b, brachyamide A] | most pronounced effect | 32 ± 11 µM | 51 ± 5% | – | – |
| CC(C)CNC(=O)/C=C/C=C/CCCCCC/C=C/c1ccc2c(c1)OCO2 [4c, guineensine] | – | – | 48 ± 2.8% | 810.1 nmol/cm^2 | IC50 (hKCNK3): 90.9 ± 12.7 µM |
| CCCC/C=C\CCCCCCC/C=C/C=C/C(=O)NCC(C)C [5c, (2E,4E,13Z)-N-isobutyl-octadeca-2,4,13-trienamide] | – | – | – | 540.5 nmol/cm^2 | tingling threshold concentration (tongue surface): 2162.1 nmol/cm^2 |
| CCCCC/C=C\CCCCCC/C=C/C=C/C(=O)NCC(C)C [6c, (2E,4E,12Z)-N-isobutyl-octadeca-2,4,12-trienamide] | – | – | – | 540.5 nmol/cm^2 | tingling threshold concentration (tongue surface): 2162.1 nmol/cm^2 |
| CCCCCCCCCCCCC/C=C/C=C/C(=O)NCC(C)C [7c, (2E,4E)-N-isobutyl-octadeca-2,4-dienamide] | – | – | – | 763.0 nmol/cm^2 | – |
| CCCC/C=C\CCCCCCCCC/C=C/C=C/C(=O)NCC(C)C [8c, (2E,4E,15Z)-N-isobutyl-eicosa-2,4,15-trienamide] | – | – | – | 741.2 nmol/cm^2 | tingling threshold concentration (tongue surface): 1482.3 nmol/cm^2 |
| CCCCC/C=C\CCCCCCCC/C=C/C=C/C(=O)NCC(C)C [9c, (2E,4E,14Z)-N-isobutyl-eicosa-2,4,14-trienamide] | – | – | – | 741.2 nmol/cm^2 | tingling threshold concentration (tongue surface): 1482.3 nmol/cm^2 |
| O=C1c2ccccc2C(Cc2ccncc2)(Cc2ccncc2)c2ccccc21 [XE-991, reference compound] | – | – | – | – | effect of pre-incubation on background current [1]: marked decrease |
| (2E,4E,13/12Z)-N-isobutyl-octadeca-2,4,12/13-trienamide [5c/6c] | – | 70 ± 32.8 µM | 57 ± 7% | – | – |
